Results: patent publication US20240165259A1, “BIOORTHOGONAL REACTION SUITABLE FOR CLICK/UNCLICK APPLICATIONS” (DANA-FARBER CANCER INSTITUTE, INC., priority 2021, published 2024)

Columns and labels:
[1] = Stability in PBS with or without glutathione, sodium ascorbate or HEK293T cell lysate (HPLC); type: physicochemical
Description: The stability of both the enamine N-oxide and hydroxylamine species under a variety of biologically relevant conditions were verified at various time points (FIG. 5A-FIG. 5B). […] However, approximately 40% of the hydroxylamine had decomposed by the 24 hour time point. The primary degradation products were consistent with hydrolysis of the regioisomeric nitrones that were likely generated by autoxidation. Consequently, this degradation pathway could be abrogated by the addition of cellular reductants such as ascorbic acid (5 mM) or glutathione (5 mM) (Bobko et al., Free Radical Biol. Med. 42(3):404-412 (2007)).
As with the hydroxylamine, the stability of enamine N-oxide 17 was evaluated by HPLC under biologically relevant conditions.
All reactions were monitored by HPLC at 0, 1, 2, 4, 8, and 24 hour time points.
HPLC analysis: Reactions with enamine N-oxide 17 were analyzed by HPLC (Pursuit 200 Å C18, 4.6×150 mm, 10 μm particles, 1 mL/min flow rate, eluent: isocratic 0% MeCN/H2O+0.1% TFA (1 min), gradient 0→100% MeCN/H2O+0.1% TFA (14 minutes), isocratic 100% MeCN/H2O+0.1% TFA (1 minute)) and quantified using its absorbance at 280 nm. Reactions with hydroxylamine 13 were analyzed by HPLC (Pursuit 200 Å C18, 4.6×150 mm, 10 μm particles, 1 mL/min flow rate, eluent: isocratic 0% MeCN/H2O+0.1% TFA (1 minute), gradient 0-20% MeCN/H2O+0.1% TFA (1 minute), gradient 20-50% MeCN/H2O+0.1% TFA (16 minutes), gradient 50→100% MeCN/H2O+0.1% TFA (2 minutes), isocratic 100% MeCN/H2O+0.1% TFA (1 minute)) and quantified using its absorbance at 254 nm.
Stability in PBS: Enamine N-oxide 17 (4 μL, 15 mM in 25% v/v MeOH/PBS, pH 7.4) was added to PBS (116 μL, pH 7.4; 500 μM final concentration). Separately, hydroxylamine 13 (3 μL, 20 mM in deionized H2O) was added to PBS (117 μL, pH 7.4; 500 μM final concentration). Each solution was monitored by HPLC at each time point.
Stability in the presence of glutathione, sodium ascorbate, and cell lysate: The reactions were conducted as described above in the Stability in PBS section except the PBS solution was first supplemented with glutathione (5 mM final concentration), sodium ascorbate (5 mM final concentration), or HEK293T cell lysate (1 mg/mL final concentration) and pH adjusted to 7.4 before adding enamine N-oxide 17 (500 μM final concentration) or hydroxylamine 13 (500 μM final concentration).

[2] = biological target: T1, lysozyme-COT 15 (Gallus gallus, UniProt P00698); test: In vitro protein labeling of lysozyme-COT 15 with hydroxylamine 13 (in-gel fluorescence, intact MS); type: biochemical
T1 construct: purchased
Description: To test the bioorthogonality of the hydroamination reaction, in vitro protein labeling experiments were performed. Fluorophore-conjugated hydroxylamine 13 was first assembled from 6-carboxytetramethylrhodamine and hydroxylamine 12, which was in turn synthesized by nucleophilic displacement of iodide 11 with N-methylhydroxylamine hydrochloride (FIG. 4A). […] With both reaction components in hand, cyclooctyne-functionalized lysozyme 15 was treated with hydroxylamine 13 (0-200 μM) in PBS for 2 hours and analyzed by in-gel fluorescence (FIG. 4C). Labeling occurred in a concentration-dependent manner, and labeling was saturated at 100 μM hydroxylamine. […]
Lysozyme (CAS 12650-88-3, 50 mg/mL in deionized H2O) was diluted into phosphate-buffered saline (PBS, pH 7.4) to a final concentration of 10 mg/mL. […] The concentration of lysozyme was determined by A280 measurement in denaturing buffer (pH 7.0, 6 M guanidinium, 30 mM MOPS) on a UV-vis spectrophotometer. […]
A solution of lysozyme-COT 15 (5.0 μL, 0.15 mg/mL) was aliquoted into 6 samples. […] In-gel fluorescence was imaged with a Typhoon™ FLA 9500 (GE) at 532 nm with a photomultiplier tube (PMT) setting of 500 V. The experiment was carried out in triplicate (FIG. 8).
A solution of lysozyme-COT 15 (5.0 μL, 0.15 mg/mL) was aliquoted each into 6 samples. […] Samples were snap frozen under liquid nitrogen until all samples were ready to be loaded on the gel. […]

T1 sequence (P00698 19-147): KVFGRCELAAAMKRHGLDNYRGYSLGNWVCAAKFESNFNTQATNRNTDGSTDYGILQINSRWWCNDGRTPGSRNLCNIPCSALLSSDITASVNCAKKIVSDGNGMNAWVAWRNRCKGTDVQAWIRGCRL

## CN(O)CCOCCNC(=O)c1ccc2c(c1)C1(OC2=O)c2ccc(N(C)C)cc2Oc2cc(N(C)C)ccc21 [compound 13, 3′,6′-bis(dimethylamino)-N-(2-(2-(hydroxy(methyl)amino)ethoxy)ethyl)-3-oxo-3H-spiro[isobenzofuran-1,9′-xanthene]-6-carboxamide]
[1]; HEK293T cell lysate (1 mg/mL), 24 hours, no exogenous reductants
  degradation in cell lysate: no degradation above background
[1]; PBS with ascorbic acid (5 mM) or glutathione (5 mM), 24 hours
  degradation in the presence of cellular reductants: Negligible degradation
[1]; PBS, room temperature, 24 hour time point
  hydroxylamine decomposed: approximately 40%
[1]; PBS, room temperature, up to 8 hours, HPLC
  compound intact: > 86%
[2]; 200 μM 13, quenched with N,N-diethylhydroxylamine (20 mM)
  time to in-gel fluorescence signal saturation: ≤ 1 h
[2]; lysozyme-COT 15, 0-200 μM 13, PBS, 2 hours, in-gel fluorescence
  hydroxylamine concentration at which labeling was saturated: 100 µM
